As a reminder, the EC50 is the midpoint of the concentration-response curve.

Inconclusive results are not listed. Peptide text beside a SMILES is read from it.

EC50 data for 34 molecules are collected here from PubChem BioAssay AID1602 (NINDS Approved Drug Screening Program, 2009).

The test deals with mutant SOD1 toxicity cell model, protection read-out. Put plainly: attenuators of mutant SOD1 toxicity, cell-based (AID 1602).
Regarding `NCCCCC(N)C(=O)NC(Cc1ccc(O)cc1)C(=O)NC(CCCCN)C(=O)O` (stereo not drawn) (H-Lys-Tyr-Lys-OH; configuration not given here), the EC50 is 75 µM.

On to `Nc1ccc(S(=O)(=O)Nc2nccs2)cc1`, for which the EC50 was 50 µM. The result for `CC(C)CC1NC(=O)CNC1=O` (centres undefined) reads 50 µM; that for `CC(=O)Nc1cc([As](=O)(O)O)ccc1O`, 50 µM. With `CN(C)CCOC(=O)C(c1ccccc1)C1(O)CCCC1` (centres undefined), the EC50 was 50 µM. The result for `CN[C@H](CC(=O)O)C(=O)O` reads 50 µM. The result for `COC(=O)C1[C@H]2C[C@H]3c4[nH]c5ccccc5c4CCN3C[C@@H]2CC[C@@H]1O` (some centres undefined) reads 50 µM; that for `O=C1NCC2(CCN(CCc3ccccc3)CC2)O1`, 50 µM; that for `CO/N=C(\C(=O)NC1C(=O)N2C(C(=O)O)=C(CSc3nc(=O)c(O)nn3C)CS[C@H]12)c1csc(N)n1` (some centres undefined), 75 µM.

`Cc1ccc(/C(=C\CN2CCCC2)c2ccccn2)cc1`: the EC50 was 50 µM. The result for `CCN1C[C@@]2(COC)C3[C@@H](OC)[C@H]4[C@@H]1[C@]3(C(OC)C[C@H]2O)C1C[C@@]2(O)[C@H](OC(=O)c3ccccc3)C1[C@]4(OC(C)=O)[C@@H](O)[C@@H]2OC` (some centres undefined) reads 50 µM; that for `NC[C@@H]1O[C@H](O[C@@H]2[C@@H](CO)OC(O[C@@H]3[C@@H](O)[C@H](N)C[C@H](N)[C@H]3OC3O[C@H](CN)[C@@H](O)[C@H](O)[C@H]3N)[C@@H]2O)[C@H](N)[C@@H](O)[C@@H]1O` (some centres undefined), 50 µM; that for `Cc1ccc(C(=O)C(C)CN2CCCCC2)cc1` (centres undefined), 50 µM. The figure for `CC[N+]1(C)CCCC(OC(=O)C(O)(c2ccccc2)c2ccccc2)C1` (centres undefined) is 50 µM.

Regarding `CCn1cc(C(=O)O)c(=O)c2cc(F)c(N3CCNCC3)cc21`, the EC50 was 75 µM. The result for `C[C@H](CCC(=O)O)[C@H]1CCC2C3C(=O)CC4CC(=O)CC[C@]4(C)C3CC(=O)[C@@]21C` (some centres undefined) reads 50 µM; that for `Nc1ccc(S(N)(=O)=O)cc1`, 50 µM; that for `NCCCC(=O)O`, 50 µM. `CC(=O)OCC1=C(C(=O)O)N2C(=O)[C@@H](NC(=O)CSc3ccncc3)[C@H]2SC1`: the EC50 is 50 µM.

On to `C[C@H](CS)C(=O)N1CCC[C@H]1C(=O)O`, for which the EC50 is 75 µM. The figure for `Cn1nnnc1SCC1=C(C(=O)O)N2C(=O)C(NC(=O)C(OC=O)c3ccccc3)C2SC1` (centres undefined) is 50 µM; for `c1ccc2c(CC3=NCCN3)cccc2c1` it is 50 µM. For the molecule `CC(CCc1ccccc1)NCC(O)c1ccc(O)c(C(N)=O)c1` (centres undefined), the EC50 is 50 µM.

For the molecule `CC(=O)N[C@@H](CS)C(=O)O`, the EC50 was 50 µM.

`CO/N=C(/C(=O)NC1C(=O)N2C(C(=O)O)=C(COC(N)=O)CSC12)c1ccco1` (centres undefined): the EC50 was 50 µM. The result for `CC(COc1ccccc1)NC(C)[C@H](O)c1ccc(O)cc1` (some centres undefined) reads 50 µM; that for `CCN1CCN(C(=O)NC(C(=O)NC2C(=O)N3C(C(=O)O)=C(CSc4nnnn4C)CSC23)c2ccc(O)cc2)C(=O)C1=O` (centres undefined), 50 µM.

For `O=C(O)c1ccccc1OP(=O)(O)O`, the EC50 was 75 µM. The figure for `NC(N)=NC(N)=Nc1ccccc1` is 50 µM; for `CNCCc1ccccn1` it is 50 µM. On to `CN1C2CCC1CC(OC(=O)C(CO)c1ccccc1)C2` (centres undefined), for which the EC50 was 50 µM. In the case of `COc1c2occc2c(OC)c2c(=O)cc(C)oc12`, the EC50 was 75 µM. Turning to `NC(N)=O`, the EC50 is 75 µM. The figure for `CC(C(=O)O)c1cccc(C(=O)c2ccccc2)c1` (centres undefined) is 75 µM.
